Drawing on patent US12247032B2, “Substituted pyrazolo[1,5-a]pyrimidines as inhibitors of JAK kinases” (Genentech, Inc., priority 2019, dated 2025), this text covers IC50 and Ki for ten compounds.

Where two headings read alike, the source gives them in different places.

In assay [1] the test system is JAK1 (IL-13-stimulated STAT6 phosphorylation in BEAS-2B cells). As to the kind of experiment: P-STAT6 BEAS-2B+IL-13 cell assay. Format: cell-based, human. To be noted: 1 hour compound, IL-13 15 minutes, IC50 by four-parameter fit, read-out: Cellular JAK1 PSTAT6 BEAS2B + IL13. The protocol:
In order to study the effect of JAK1 inhibitors in a cell line that is relevant to the cell biology of human asthma, an IL-13-stimulated STAT6 phosphorylation assay in the human lung bronchial epithelial BEAS-2B cell line was developed.
BEAS-2B cells (ATCC® CRL-9609™) were grown in Bronchial Epithelial Growth Medium (BEGM) (Lonza Catalog No. CC-3170; Walkersville, MD; or PromoCell Catalog No. C-21060; Heidelberg, Germany). Test compound stock solutions (0.5 mM in DMSO) were serially diluted 1:2 in DMSO to generate a 10-point concentration curve (at 500× test concentration), which was further diluted by a 50-fold dilution step in BEGM to generate a 10× concentration curve (in 2% DMSO). Cells were plated at 100,000 cells/well in 200 μL of BEGM in 96-well plates and incubated for 48 hours at 37° C. in a humidified incubator. Medium was aspirated from the cells and replaced with 70 μL of fresh BEGM. Diluted test compound (10 μL; or 2% DMSO in assay medium) was added to the cells, and the plates were incubated for 1 hour at 37° C. in a humidified incubator. Twenty μL of 250 ng/mL human recombinant IL-13 (Bio Techne Catalog No. 213-ILB) was then added to the cells and incubated for 15 minutes at 37° C. Medium was aspirated from the cells and 60 μL of ice-cold 1×cell lysis buffer (Cell Signaling Technologies; Catalog No. 9803S) containing 1 mM PMSF was added to the cells. Assay plates were incubated at −80° C. for at least 1 hour. P-STAT6 was measured by coating GAR plates (MSD; Catalog No. L45RA-1) with rabbit anti-human total STAT6 antibody (Cell Signaling Technologies; Catalog No. 9362S), incubating the cell lysates in the coated plates overnight at 4° C., and then detecting with mouse anti-phospho-STAT6 (Tyr641) Clone 16E12 antibody (Millipore; Catalog No. 05-590, custom labeled by MSD with SULFO-tag) using standard MSD plate processing, washing, and detection protocols. Plates were read on the MESO SECTOR S600.
Data analysis was performed by subtracting negative control values from all wells and determining percent of control using the positive control values; the IC50 was determined with a four-parameter logistic fit model as shown in Equation 4.

In assay [2] the target is T1, Recombinant human JAK2 kinase domain protein (Residues 812-1132) (Homo sapiens, UniProt O60674).
T1 construct: human JAK2 kinase domain protein (Residues 812-1132); made in house; host or cells: insect cells
As to the kind of experiment: JAK2 biochemical assay (microfluidic mobility shift, peptide phosphorylation). To be noted: 25 μM ATP, 0.2 nM total JAK2; Ki calculated from Ki app (tight-binding, competitive); read-out: Biochem JAK2 Ki. The protocol: (§1) The in vitro biochemical assays quantify JAK-catalyzed phosphorylation of a synthetic peptide, as detected using a LabChip® EZ Reader II microfluidic mobility shift instrument (PerkinElmer; Waltham, MA). The substrate peptide Y-1B has the sequence 5-FAM-VALVDGYFRLTT-NH2. Y-1B is fluorescently labeled on the N-terminus with 5-FAM (5-carboxyfluorescein) and contains a single tyrosine residue (Y) that can be phosphorylated by JAK activity. The substrate peptide stock is prepared in DMSO at 5 mM. Purified recombinant human JAK1 kinase domain protein (Residues 854-1154) was expressed in insect cells and procured from Proteros Biostructures GmbH (Martinsried, Germany). Recombinant human JAK2 kinase domain protein (Residues 812-1132) was expressed in insect cells and purified at Genentech, Inc. (South San Francisco, CA).
(§2) The kinase reaction mixtures contained 100 mM 4-(2-hydroxyethyl)-1-piperazineethanesulfonic acid (HEPES) buffer (pH 7.2), 10 mM magnesium chloride, 0.015% Brij® 35, 4 mM dithiothreitol, 1.5 μM Y-1B peptide substrate, 25 μM adenosine triphosphate (ATP), 1 nM total JAK1 or 0.2 nM total JAK2, and up to 1000 nM test compound in a final concentration of 2% (volume to volume [v/v]) DMSO. In each titration experiment, test compound was tested in duplicate at each of the twelve concentrations. Blank reactions contained ATP, peptide, and DMSO, but no JAK or test compound, whereas uninhibited control reactions contained ATP, peptide, JAK, and DMSO, but no test compound.
(§3) Peptide plus ATP mixture (24 μL) was added to 1 μL of test compound in DMSO (or DMSO alone). The reactions were initiated by adding 25 μL of JAK enzyme to the inhibitor/peptide/ATP mixture before thoroughly mixing the resultant solution. Reactions were incubated at room temperature (22° C.-23° C.) in a final volume of 50 μL per well in 384-well plates. After a 30-minute incubation, the reactions were stopped by adding 25 μL of 150 mM ethylenediaminetetraacetic acid in 100 mM HEPES buffer (pH 7.2) containing 0.015% Brij 35 to each well.
(§4) In each reaction, the residual Y-1B substrate and the phospho-peptide product generated were separated using the EZ Reader 1 instrument. Electrophoretic separation of molecules of product from molecules of substrate was achieved using downstream and upstream voltages of −500 and −2600 V, respectively, at an operating pressure of −1.3 psi. The 5-FAM group present on both the substrate and product peptides was excited at 488 nm, the fluorescence was detected at 530 nm, and the peak heights were reported.
(§5) The extent (or percent) of conversion of substrate to product was calculated from the corresponding peak heights in the electropherogram using HTS Well Analyzer software, Version 5.2 (PerkinElmer), and the following equation (Equation 1): % conversion=[P[…](S+P)]×100 Equation 1 where S and P represent the peak heights of the substrate and product, respectively. After any baseline signal from blank wells containing no JAK was subtracted from the signal of all test wells, the % conversion data were converted to fractional activity as shown in Equation 2, where νi and νo are the % conversion in the presence and absence of test compound, respectively. The % conversion observed in the uninhibited control reactions containing JAK and DMSO vehicle, but no test compound, was defined to have fractional activity=1 (with no inhibitor present, νi=νo), whereas blank wells with no JAK were defined as having fractional activity=0. Fractional activity was plotted against test compound concentration and the data were fitted using XLfit software (IDBS; Guildford, United Kingdom) to a tight-binding apparent inhibition constant (Ki^app) quadratic equation (see Equation 2) (Williams J W, Morrison J F. The kinetics of reversible tight-binding inhibition. Methods Enymol 1979; 63:437-67), which was used to calculate fractional activity and Ki^app […]

Assay [3] addresses T2, recombinant human JAK1 kinase domain protein (Residues 854-1154) (Homo sapiens, UniProt P23458).
T2 construct: human JAK1 kinase domain protein (Residues 854-1154); purchased Proteros Biostructures GmbH (Martinsried, Germany); host or cells: insect cells
Put plainly: JAK1 biochemical assay (microfluidic mobility shift, peptide phosphorylation). To be noted: 25 μM ATP, 1 nM total JAK1; Ki calculated from Ki app (tight-binding, competitive); read-out: Biochem JAK1 Ki. Here is the method:
as §1, §2, §3, §4, §5

T2 sequence (P23458 854-1154): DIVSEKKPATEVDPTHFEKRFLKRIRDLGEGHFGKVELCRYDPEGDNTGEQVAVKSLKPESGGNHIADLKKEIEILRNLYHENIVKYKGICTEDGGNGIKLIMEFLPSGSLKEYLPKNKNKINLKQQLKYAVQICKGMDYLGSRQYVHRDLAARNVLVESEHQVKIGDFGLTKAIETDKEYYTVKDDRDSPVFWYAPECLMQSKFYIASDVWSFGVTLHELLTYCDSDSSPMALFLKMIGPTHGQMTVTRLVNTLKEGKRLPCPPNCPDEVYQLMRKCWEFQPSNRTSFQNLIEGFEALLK
T1 sequence (O60674 812-1132): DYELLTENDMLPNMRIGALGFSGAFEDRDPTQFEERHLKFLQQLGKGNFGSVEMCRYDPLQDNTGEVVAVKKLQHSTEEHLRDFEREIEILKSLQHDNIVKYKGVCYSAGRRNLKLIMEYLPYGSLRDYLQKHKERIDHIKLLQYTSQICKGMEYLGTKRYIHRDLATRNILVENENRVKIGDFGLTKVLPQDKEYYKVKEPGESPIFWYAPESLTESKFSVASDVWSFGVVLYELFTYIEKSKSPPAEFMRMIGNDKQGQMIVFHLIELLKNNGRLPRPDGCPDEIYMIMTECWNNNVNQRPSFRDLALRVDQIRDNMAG

Turning to `CN(C)C1CCC(N2CC(n3nnc(Cn4cc(NC(=O)c5cnn6cccnc56)c(-c5cc(OC(F)F)ccc5OC(F)F)n4)n3)C2)C1` (single isomer, unassigned) [Example 76, N-[3-[2,5-bis(difluoromethoxy)phenyl]-1-[[2-[1-[3-(dimethylamino)cyclopentyl]azetidin-3-yl]tetrazol-5-yl]methyl]pyrazol-4-yl]pyrazolo[1,5-a]pyrimidine-3-carboxamide], the IC50 in assay [1] was determined as 74 nM. In addition, the Ki in assay [2] is 1.9 nM; in assay [3] it was 2.4 nM.
For the compound `CN(C)CCN(C)C1CC(n2nnc(Cn3cc(NC(=O)c4cnn5cccnc45)c(-c4cc(OC(F)F)ccc4OC(F)F)n3)n2)C1` (single isomer, unassigned) [Example 81, N-[3-[2,5-bis(difluoromethoxy)phenyl]-1-[[2-[3-[2-(dimethylamino)ethyl-methyl-amino]cyclobutyl]tetrazol-5-yl]methyl]pyrazol-4-yl]pyrazolo[1,5-a]pyrimidine-3-carboxamide; formic acid], the IC50 in assay [1] (Homo sapiens, BEAS-2B, 1 h) came out at 29 nM. The Ki in assay [2] was 0.47 nM; in assay [3], 0.52 nM.
In the case of `CN(C)CCN(C)C1CC(n2nnc(Cn3cc(NC(=O)c4cnn5cccnc45)c(-c4cc(OC(F)F)ccc4OC(F)F)n3)n2)C1` (single isomer, unassigned) [Example 82, N-[3-[2,5-bis(difluoromethoxy)phenyl]-1-[[2-[3-[2-(dimethylamino)ethyl-methyl-amino]cyclobutyl]tetrazol-5-yl]methyl]pyrazol-4-yl]pyrazolo[1,5-a]pyrimidine-3-carboxamide; formic acid], the IC50 in assay [1] (formic acid) came out at 32 nM. The Ki is 0.47 nM in assay [2] and 0.54 nM in assay [3].
`CN(C)CC(F)CN1CC(n2nnc(Cn3cc(NC(=O)c4cnn5cccnc45)c(-c4cc(OC(F)F)ccc4OC(F)F)n3)n2)C1` (single isomer, unassigned) [Example 83, N-[3-[2,5-bis(difluoromethoxy)phenyl]-1-[[2-[1-[3-(dimethylamino)-2-fluoro-propyl]azetidin-3-yl]tetrazol-5-yl]methyl]pyrazol-4-yl]pyrazolo[1,5-a]pyrimidine-3-carboxamide]: the IC50 in assay [1] (Homo sapiens, BEAS-2B, 1 h) was 17 nM. For the same compound, the Ki in assay [2] is 0.39 nM; in assay [3], 0.43 nM.
As for `CN(C)CC(F)CN1CC(n2nnc(Cn3cc(NC(=O)c4cnn5cccnc45)c(-c4cc(OC(F)F)ccc4OC(F)F)n3)n2)C1` (single isomer, unassigned) [Example 84, N-[3-[2,5-bis(difluoromethoxy)phenyl]-1-[[2-[1-[3-(dimethylamino)-2-fluoro-propyl]azetidin-3-yl]tetrazol-5-yl]methyl]pyrazol-4-yl]pyrazolo[1,5-a]pyrimidine-3-carboxamide], the IC50 in assay [1] stood at 20 nM. The Ki was 0.5 nM in assay [2] and 0.55 nM in assay [3].
With `CN1CCC[C@@H]1Cn1nnc(Cn2cc(NC(=O)c3cnn4cccnc34)c(-c3cc(OC(F)F)ccc3OC(F)F)n2)n1` (stereo in doubt) [Example 49, N-[3-[2,5-bis(difluoromethoxy)phenyl]-1-[[2-[[rac-(2R)-1-methylpyrrolidin-2-yl]methyl]tetrazol-5-yl]methyl]pyrazol-4-yl]pyrazolo[1,5-a]pyrimidine-3-carboxamide], the IC50 in assay [1] (Homo sapiens, BEAS-2B, 1 h) stood at 19 nM. Also, the Ki in assay [2] was 0.41 nM; in assay [3], 0.53 nM.
Taken in the same sequence, the figures for `CN1CCC[C@H]1Cn1nnc(Cn2cc(NC(=O)c3cnn4cccnc34)c(-c3cc(OC(F)F)ccc3OC(F)F)n2)n1` (stereo in doubt) [Example 53, N-[3-[2,5-bis(difluoromethoxy)phenyl]-1-[[2-[[rac-(2S)-1-methylpyrrolidin-2-yl]methyl]tetrazol-5-yl]methyl]pyrazol-4-yl]pyrazolo[1,5-a]pyrimidine-3-carboxamide] were 35 nM, 0.32 nM and 0.48 nM.
For `O=C(Nc1cn(Cc2nnn(CCO)n2)nc1-c1cc(Cl)ccc1OC(F)F)c1cnn2cccnc12` [Example 1, N-[3-[5-chloro-2-(difluoromethoxy)phenyl]-1-[[2-(2-hydroxyethyl)tetrazol-5-yl]methyl]pyrazol-4-yl]pyrazolo[1,5-a]pyrimidine-3-carboxamide], the IC50 in assay [1] (Homo sapiens, BEAS-2B, 1 h) turned out to be 6.7 nM. In addition, the Ki in assay [2] is 0.089 nM; in assay [3], 0.15 nM.
The corresponding values for `O=C(Nc1cn(Cc2nnn(CCN3CCOCC3)n2)nc1-c1cc(Cl)ccc1OC(F)F)c1cnn2cccnc12` [Example 2, N-[3-[5-chloro-2-(difluoromethoxy)phenyl]-1-[[2-(2-morpholinoethyl)tetrazol-5-yl]methyl]pyrazol-4-yl]pyrazolo[1,5-a]pyrimidine-3-carboxamide] are 14 nM, 0.29 nM and 0.54 nM.
Taken in the same sequence, the figures for `CN1CCC(n2nnc(Cn3cc(NC(=O)c4cnn5cccnc45)c(-c4cc(Cl)ccc4OC(F)F)n3)n2)CC1` [Example 3, N-[3-[5-chloro-2-(difluoromethoxy)phenyl]-1-[[2-(1-methyl-4-piperidyl)tetrazol-5-yl]methyl]pyrazol-4-yl]pyrazolo[1,5-a]pyrimidine-3-carboxamide] were 14 nM, 0.43 nM and 0.58 nM.
